# Target: HLA A*3001 (Homo sapiens, UniProt P04439, D140H/D185E/E176W/F33S/G80R/H175R/K168Q/R138E/R41S)
# Assay: biochemical
# Type: binding
# Details: not given
row,Sequence,"Normalized average relative binding affinity (ARB), HLA A*3001"
1,CXXXXXXXX [3064.0002],0.097
2,DXXXXXXXX [3064.0003],0.0069
3,EXXXXXXXX [3064.0004],0.018

# Target: HLA A*3201 (Homo sapiens, UniProt P04439, A270S/D101S/D185E/E176V/E277Q/F133L/G103R/G107R/G231S/H175R/I121M/I218V/I322F/K168Q/L105A/L300P/L318F/M331R/P208A/P217A/Q94H/R106L/R138Q/S129P/T104I/T323A/T345S/V100E/V321M/V358M)
# Assay: biochemical
# Type: binding
# Details: not given
row,Sequence,"Normalized average relative binding affinity (ARB), HLA A*3201"
1,CXXXXXXXX [3064.0002],0.11
2,DXXXXXXXX [3064.0003],0.031
3,EXXXXXXXX [3064.0004],0.12

# Target: HLA A*6802 (Homo sapiens, UniProt P04439, A269V/D140Y/D185E/E176V/E277Q/E87N/F33Y/G231S/I121R/I166T/I218V/L180W/L300P/L318F/N151K/P208A/P217A/Q86R/R138H/R169H/S129P/T345S/V36M)
# Assay: not given
# Type: binding
# Details: not given
row,Sequence,"Normalized average relative binding affinity (ARB), HLA A*6802"
1,CXXXXXXXX [3064.0002],0.13
2,DXXXXXXXX [3064.0003],0.21
3,EXXXXXXXX [3064.0004],1.0

# Target: HLA B*0702 (Homo sapiens, UniProt P01889)
# Assay: not given
# Type: binding
# Details: positional scanning combinatorial 9-mer library; normalized to 1.0 for the best residue at each position
row,Sequence,"Normalized average relative binding affinity (ARB), HLA B*0702"
1,CXXXXXXXX [3064.0002],0.19
2,DXXXXXXXX [3064.0003],0.021
3,EXXXXXXXX [3064.0004],0.069

# Target: HLA B*0801 (Homo sapiens, UniProt P01889, A93T/A95T/D138N/E176V/E187T/K202T/Q94N/R180D/S35A/V36M/Y33D/Y91F)
# Assay: biochemical
# Type: binding
# Details: not given
row,Sequence,"Normalized average relative binding affinity (ARB), HLA B*0801"
1,CXXXXXXXX [3064.0002],0.16
2,DXXXXXXXX [3064.0003],0.13
3,EXXXXXXXX [3064.0004],0.36

# Target: HLA B*1501 (Homo sapiens, UniProt P01889, A329T/A93T/A95T/C349S/D201E/D98Y/E187L/E204Q/E69M/E70A/K202T/N87E/Q94N/R155S/R180W/S121R/S35A/S48A/V306I/V36M/Y140S/Y91S)
# Assay: biochemical
# Type: binding
# Details: not given
row,Sequence,"Normalized average relative binding affinity (ARB), HLA B*1501"
1,CXXXXXXXX [3064.0002],0.19
2,DXXXXXXXX [3064.0003],0.042
3,EXXXXXXXX [3064.0004],0.16

# Target: HLA B*1503 (Homo sapiens, UniProt P01889, A329T/A93T/A95T/C349S/D201E/D98Y/E187L/E204Q/K202T/N87E/Q94N/R155S/R180L/S121R/S35A/V306I/V36M/Y140S/Y91S)
# Assay: biochemical
# Type: binding
# Details: not given
row,Sequence,"Normalized average relative binding affinity (ARB), HLA B*1503"
1,CXXXXXXXX [3064.0002],0.20
2,DXXXXXXXX [3064.0003],0.016
3,EXXXXXXXX [3064.0004],0.090

# Target: HLA B*2705 (Homo sapiens, UniProt P01889, D138H/D201E/E176V/E204Q/G107R/H137Y/K202T/N104T/N87E/Q56L/Q94K/R106L/R155S/R180L/S101D/S121N/S48T/Y140D/Y33H/Y91C)
# Assay: not given
# Type: binding
# Details: positional scanning combinatorial 9-mer library; normalized to 1.0 for the best residue at each position
row,Sequence,"Normalized average relative binding affinity (ARB), HLA B*2705"
1,CXXXXXXXX [3064.0002],0.11
2,DXXXXXXXX [3064.0003],0.022
3,EXXXXXXXX [3064.0004],0.089

# Target: HLA B*3501 (Homo sapiens, UniProt P01889, A329T/A93T/A95T/C349S/D201E/D98Y/E176V/E187L/E204Q/E69T/I218V/K202T/L119I/Q94N/R155S/R180L/S121R/S35A/S48A/T118I/V127L/V306I/V36M/Y140S/Y91F)
# Assay: not given
# Type: binding
# Details: not given
row,Sequence,"Normalized average relative binding affinity (ARB), HLA B*3501"
1,CXXXXXXXX [3064.0002],0.19
2,DXXXXXXXX [3064.0003],0.11
3,EXXXXXXXX [3064.0004],0.085

# Target: HLA B*5101 (Homo sapiens, UniProt P01889, A329T/A93T/A95T/C349S/D138N/D201E/D98Y/E187L/E204Q/E69T/G107R/I218V/K202T/L105A/L119W/N104I/Q94N/R106L/R155S/R180L/S101N/S121T/S35A/S48A/V306I/V36M/Y195H/Y91F)
# Assay: not given
# Type: binding
# Details: not given
row,Sequence,"Normalized average relative binding affinity (ARB), HLA B*5101"
1,CXXXXXXXX [3064.0002],0.19
2,DXXXXXXXX [3064.0003],0.27
3,EXXXXXXXX [3064.0004],0.10

# Target: HLA B*5301 (Homo sapiens, UniProt P01889, A329T/A93T/A95T/C349S/D201E/D98Y/E176V/E187L/E204Q/E69T/G107R/I218V/K202T/L105A/L119I/N104I/Q94N/R106L/R155S/R180L/S101N/S121R/S35A/S48A/T118I/V127L/V306I/V36M/Y140S/Y91F)
# Assay: not given
# Type: binding
# Details: not given
row,Sequence,"Normalized average relative binding affinity (ARB), HLA B*5301"
1,CXXXXXXXX [3064.0002],0.061
2,DXXXXXXXX [3064.0003],0.028
3,EXXXXXXXX [3064.0004],0.021

# Target: HLA B*5401 (Homo sapiens, UniProt P01889, A329T/C349S/D138N/D201E/E176V/E187T/E204Q/E69G/I76V/K202T/L119W/R155S/R180L/S121T/S35A/S48A/V127L/V306I/V36M/Y140L)
# Assay: not given
# Type: binding
# Details: not given
row,Sequence,"Normalized average relative binding affinity (ARB), HLA B*5401"
1,CXXXXXXXX [3064.0002],0.027
2,DXXXXXXXX [3064.0003],0.050
3,EXXXXXXXX [3064.0004],0.040

# Target: HLA B*5801 (Homo sapiens, UniProt P01889, A329T/C349S/D201E/D98Y/E176V/E187L/E204Q/E69T/G107R/I218V/I90N/K202T/L105A/L119I/N104I/N87E/Q89R/Q94S/R106L/R155S/R180L/R86G/S101N/S121R/S35A/S48A/T118I/V127L/V306I/V36M/Y140S/Y91M)
# Assay: not given
# Type: binding
# Details: not given
row,Sequence,"Normalized average relative binding affinity (ARB), HLA B*5801"
1,CXXXXXXXX [3064.0002],0.18
2,DXXXXXXXX [3064.0003],0.013
3,EXXXXXXXX [3064.0004],0.032

# Target: HLA B*5802 (Homo sapiens, UniProt P01889, A329T/C349S/D201E/D98Y/E176V/E187L/E204Q/E69T/G107R/I218V/I90N/K202T/L105A/N104I/N87E/Q89R/Q94S/R106L/R155S/R180L/R86G/S101N/S121W/S35A/S48A/V127L/V306I/V36M/Y140S/Y91M)
# Assay: not given
# Type: binding
# Details: not given
row,Sequence,"Normalized average relative binding affinity (ARB), HLA B*5802"
1,CXXXXXXXX [3064.0002],0.048
2,DXXXXXXXX [3064.0003],0.068
3,EXXXXXXXX [3064.0004],0.066

# Target: H-2 D^b (Mus musculus, UniProt P01899)
# Sequence (P01887 21-119): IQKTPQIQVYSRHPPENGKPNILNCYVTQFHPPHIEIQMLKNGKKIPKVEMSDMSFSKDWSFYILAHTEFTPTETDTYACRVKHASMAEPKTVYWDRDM
# Sequence (P01899 25-362): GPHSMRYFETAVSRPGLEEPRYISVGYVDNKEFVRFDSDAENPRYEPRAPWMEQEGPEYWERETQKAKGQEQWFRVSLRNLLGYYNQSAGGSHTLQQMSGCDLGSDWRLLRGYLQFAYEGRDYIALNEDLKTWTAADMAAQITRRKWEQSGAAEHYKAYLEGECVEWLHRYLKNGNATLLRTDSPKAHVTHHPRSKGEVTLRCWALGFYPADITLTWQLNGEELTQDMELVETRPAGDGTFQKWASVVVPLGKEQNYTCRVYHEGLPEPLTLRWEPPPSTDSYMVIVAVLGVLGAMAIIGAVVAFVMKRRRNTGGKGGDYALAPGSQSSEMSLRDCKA
# Assay: not given
# Type: binding
# Details: not given
row,Sequence,"Normalized average relative binding affinity (ARB), H-2 Db"
1,CXXXXXXXX [3064.0002],0.16
2,DXXXXXXXX [3064.0003],0.033
3,EXXXXXXXX [3064.0004],0.030

# Target: H-2 D^d (Mus musculus, UniProt P01900)
# Sequence (P01900 whole entry, looked up): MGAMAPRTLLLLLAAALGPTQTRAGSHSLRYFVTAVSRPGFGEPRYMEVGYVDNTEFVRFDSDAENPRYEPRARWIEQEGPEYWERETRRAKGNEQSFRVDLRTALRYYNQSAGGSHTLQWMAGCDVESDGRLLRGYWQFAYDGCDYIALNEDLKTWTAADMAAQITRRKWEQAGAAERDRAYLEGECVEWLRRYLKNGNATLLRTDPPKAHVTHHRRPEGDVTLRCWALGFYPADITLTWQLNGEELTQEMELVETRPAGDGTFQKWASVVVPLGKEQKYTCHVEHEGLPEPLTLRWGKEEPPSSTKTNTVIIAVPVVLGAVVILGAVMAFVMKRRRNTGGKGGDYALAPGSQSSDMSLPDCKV
# Assay: not given
# Type: binding
# Details: not given
row,Sequence,"Normalized average relative binding affinity (ARB), H-2 Dd"
1,CXXXXXXXX [3064.0002],0.26
2,DXXXXXXXX [3064.0003],0.059
3,EXXXXXXXX [3064.0004],0.16

# Target: H-2 K^k (Mus musculus, UniProt P04223)
# Sequence (P01887 21-119): as the sequence (P01887 21-119) above
# Sequence (P04223 22-369): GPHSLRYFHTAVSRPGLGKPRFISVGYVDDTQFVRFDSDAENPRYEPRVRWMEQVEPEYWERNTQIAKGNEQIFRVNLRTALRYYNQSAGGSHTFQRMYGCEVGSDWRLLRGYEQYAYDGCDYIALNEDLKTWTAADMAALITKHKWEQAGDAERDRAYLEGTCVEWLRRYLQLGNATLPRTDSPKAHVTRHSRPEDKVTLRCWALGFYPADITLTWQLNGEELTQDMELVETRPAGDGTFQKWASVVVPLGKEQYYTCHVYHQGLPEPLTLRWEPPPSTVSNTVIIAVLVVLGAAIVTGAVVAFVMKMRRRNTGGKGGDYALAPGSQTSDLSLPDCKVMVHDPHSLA
# Assay: not given
# Type: binding
# Details: not given
row,Sequence,"Normalized average relative binding affinity (ARB), H-2 Kk"
1,CXXXXXXXX [3064.0002],0.51
2,DXXXXXXXX [3064.0003],0.43
3,EXXXXXXXX [3064.0004],0.77

# Target: HLA A*0201 (Homo sapiens, UniProt P04439, D140Y/D185E/D98H/E176V/E277Q/G131W/G231S/I119V/I121R/I166T/I218V/L300P/L318F/N151K/N90K/P208A/P217A/Q86G/Q94H/R138H/R169H/T345S)
# Assay: not given
# Details: positional scanning combinatorial 9-mer library; normalized to 1.0 for the best residue at each position
row,Sequence,"Normalized average relative binding affinity (ARB), HLA A*0201"
1,CXXXXXXXX [3064.0002],0.032
2,DXXXXXXXX [3064.0003],0.0078
3,EXXXXXXXX [3064.0004],0.015
